From US10253060B2, “Terpenoid derivatives” (Daiichi Sankyo Company, Limited, priority 2013, dated 2019)

How the values were obtained:
ARPE-19 cells = assay: Cytoprotective action: suppression of t-BHP-induced decrease in number of live ARPE-19 cells; type: cell-based, human; settings: 300 μM t-BHP; for Number of live cells (percentage): no t-BHP/no compound = 100%, mean ± SD, 3 wells
Procedure: The peroxide tert-butyl hydroperoxide (t-BHP) is known to cause oxidative stress-dependent cell injury (Chem Biol Interact 2009; 181: 366- and Food Chem Toxicol 2011; 49: 2081-).
The test compound was terpenoid derivative B of the present invention obtained in Example 1 and CDDO-Me as Comparative Example.
ARPE-19 cells were cultured (5% CO2, 37° C.) using a DMEM/F12 (Life Technologies Japan Ltd., catalog No. 11330-032) mixed medium containing 10% inactivated FBS. The medium contained 100 units/mL (final concentration) penicillin and 100 μg/mL (final concentration) streptomycin.
The ARPE-19 cells were seeded at 10000 cells/well in a 96-well plate. The amount of the medium was 100 μL. Approximately 6 hours later, the medium was replaced with a medium containing terpenoid derivative B of the present invention obtained in Example 1 or CDDO-Me. After culture for approximately 16 hours, the number of live ARPE-19 cells was measured (Cell Counting Kit-8 (catalog No. CK01) manufactured by Dojindo Laboratories was used). Then, the medium was replaced with medium containing 300 μM t-BHP (manufactured by Sigma-Aldrich Corp., catalog No. 46665) and further containing terpenoid derivative B of the present invention obtained in Example 1 or CDDO-Me. Approximately 6 hours after the addition of t-BHP, the number of live ARPE-19 cells was measured.
The number of live cells in medium containing neither t-BHP nor the test compound was defined as 100%. The number of live cells in medium containing 300 μM t-BHP and each concentration of the test compound was indicated by percentage. Each group consisted of 3 wells and was indicated as a mean and standard deviation.

Nqo1 gene = assay: Effect of inducing Nrf2 target gene (in vivo): Nqo1 gene expression in mouse kidney after oral administration; design: species or system C57 Black 6 mouse; settings: for Nqo1 gene expression level: solvent group defined as 1, mean ± SD, 6 mice; for induction of the Nqo1 gene (in words): oral, derivative B at a dose of 1 mg/kg
Procedure: The Nqo1 gene was used as the Nrf2 target gene.
Respective suspensions of terpenoid derivative B of the present invention obtained in Example 1 and CDDO-Me were prepared using 0.5 w/v % methylcellulose solution 400 cP (Wako Pure Chemical Industries, Ltd., catalog No. 133-14255) as a solvent. Each suspension was orally administered once a day for 12 consecutive days at a dose of 1, 3, or 10 mg/kg with administration volume of 10 mL/kg to each C57 Black 6 mouse (Charles River Laboratories Japan, Inc., male, 8 weeks old at the time of receipt, 10 weeks old at the start of the experiment). On the next day of the final administration, the mouse was euthanized, and the kidney was sampled. From the sampled kidney, mRNA was collected using an extraction kit (manufactured by Qiagen N.V., RNeasy Mini Kit, catalog No. 74106). From the obtained mRNA, cDNA was prepared using a cDNA synthesis kit (manufactured by GE Healthcare Life Sciences, First-Strand cDNA Synthesis Kit). The obtained cDNA was amplified using a reagent (manufactured by Applied Biosystems, Inc., TaqMan(R) Gene Expression Master Mix (catalog No. 4369016)) and a probe, and subjected to real-time quantitative PCR (Real-time PCR HT7900 manufactured by Applied Biosystems, Inc. was used). […] Each group consisted of 6 mice and was indicated as a mean and standard deviation.

[1] = test system: oxygen-induced retinopathy in rat; assay: Inhibitory effect on oxygen-induced retinopathy in rat (in vivo); design: species or system SD rat; settings: for Score of pathological condition of retina: rat newborns, oxygen load present, seven times, mean ± SD
Procedure: SD rat newborns (Charles River Laboratories Japan, Inc., pregnant rats were received) were used in the experiment. From the ages of 1 day to 12 days, the newborns were raised under approximately 80% oxygen with the mother rats. The newborns were raised under the atmosphere from the age of 13 days. A suspension of the terpenoid derivative B was prepared using a 0.5 w/v % methylcellulose solution 400 cP (Wako Pure Chemical Industries, Ltd., catalog No. 133-14255) as a solvent. The suspension was orally administered once a day from the ages of 11 days to 17 days, a total of seven times, at a dose of 0.03, 0.1, or 0.3 mpk with administration volume of 10 mL/kg. On the next day of the final […], the newborn rats were euthanized, and the retina was sampled. The pathological condition of the retina was scored according to the literature (Invest Ophthalmol Vis Sci 2000; 41: 887-). Each group consisted of 14 to 30 eyes and was indicated as a mean and standard deviation.

[2] = 1 mg/kg oral once a day for 12 days
[3] = 3 mg/kg oral once a day for 12 days
[4] = 10 mg/kg oral once a day for 12 days

| SMILES | Number of live cells (percentage) (ARPE-19 cells; 0.03 nM test compound) [%] | Number of live cells (percentage) (ARPE-19 cells; 0.3 nM test compound) [%] | Number of live cells (percentage) (ARPE-19 cells; 3 nM test compound) [%] | Number of live cells (percentage) (ARPE-19 cells; 30 nM test compound) [%] | Number of live cells (percentage) (ARPE-19 cells; 300 nM test compound) [%] | Nqo1 gene expression level (Nqo1 gene; [2]) | Nqo1 gene expression level (Nqo1 gene; [3]) | Nqo1 gene expression level (Nqo1 gene; [4]) | induction of the Nqo1 gene (in words) (Nqo1 gene) | Score of pathological condition of retina ([1]; 0.03 mg/kg oral once a day) | Score of pathological condition of retina ([1]; 0.1 mg/kg oral once a day) | Score of pathological condition of retina ([1]; 0.3 mg/kg oral once a day) | effect on score of the pathological condition of the retina (in words) ([1]; rat oxygen-induced retinopathy, oral 0.03 to 0.3 mg/kg) | suppression of the decrease in the number of live cells caused by t-BHP (in words) (ARPE-19 cells) |
| --- | --- | --- | --- | --- | --- | --- | --- | --- | --- | --- | --- | --- | --- | --- |
| COC(=O)[C@@]12CC[C@]3(C)[C@H](C(=O)C=C4[C@@]5(C)[C@H]6O[C@@]6(C#N)C(=O)C(C)(C)[C@@H]5CC[C@]43C)[C@@H]1CC(C)(C)[C@@H](O)C2 [terpenoid derivative B] | 90.3 ± 3.9 | 99.0 ± 10.0 | 119.7 ± 5.7 | 114.3 ± 9.5 | 111.2 ± 3.8 | 1.2 ± 0.1 | 1.8 ± 0.2 | 2.3 ± 0.2 | confirmed to induce the Nqo1 gene | 3.93 ± 0.79 | 3.54 ± 0.48 | 2.57 ± 0.35 | suppressed the score of the pathological condition of the retina in a dose-dependent manner |  |
| COC(=O)[C@]12CCC(C)(C)C[C@H]1[C@H]1C(=O)C=C3[C@@]4(C)C=C(C#N)C(=O)C(C)(C)[C@@H]4CC[C@@]3(C)[C@]1(C)CC2 [CDDO-Me, methyl 2-cyano-3,12-dioxooleana-1,9-dien-28-oate, reference compound] | 61.8 ± 2.0 | 56.7 ± 1.2 | 74.3 ± 1.4 | 84.7 ± 4.8 | 76.1 ± 2.8 | 1.0 ± 0.0 | 1.0 ± 0.1 | 1.0 ± 0.1 | not confirmed to induce the Nqo1 gene |  |  |  |  | did not completely suppress the decrease in the number of live cells |
